Test results taken from paper PMC6886544.
Where two headings read alike, the source gives them in different places.

Legend:
EGFR-L858R/T790M [1] = target: T1, EGFR-L858R/T790M (Homo sapiens, UniProt P00533, L858R/T790M); assay: Kinetic characterization (Ki, kinact), EGFR-L858R/T790M
EGFR-wt [2] = target: T2, EGFR-wt (Homo sapiens, UniProt P00533); assay: Kinetic characterization (Ki, kinact), EGFR-wt
[3] = test system: EGFR and downstream cascade phosphorylation in H1975 cells; assay: Western blot analysis in H1975 cells; assay type: cell-based; details: 1 h inhibitor then EGF stimulation
Description: and incubated at 37 °C and 5% CO2. On day 2 cells were starved over night with media containing 0.5% FBS to be incubated on day 3 for 1 h with EGFR inhibitors following an additional 30 min of EGF stimulation at 50 ng/mL. The media was discarded and cells were washed once with DPBS
1x. Using 100 μL per well of lysis buffer, cells were then scraped off and lysed while rotating (Stuart Scientific, Staffordshire, UK) for 1 h at 4 °C. […] Supernatant was transferred into new tube and protein concentrations were determined with the Bio-Rad Protein Assay (Bio-Rad Laboratories, Hercules, CA). […]
captured and quantified using a FUJI LAS3000 system with Science Lab 2001 ImageGauge 4.0 software (Fujifilm Medial Systems, Stamford CT, USA). […]
glycerol, 1 mM TCEP, pH 8) on ice for 1 h. We analyzed the aliquots by ESI-MS using an Thermo Fisher Scientific Dionex UltiMate 3000 HPLC system connected to a Thermo Fisher Scientific Velos Pro (2d ion trap). Therefore, 5 μL of sample was injected and separated using a Vydac 214TP C4 5 μm column (150 mm x 2.1 mm) starting at 20% of solvent B for 5 minutes followed by a gradient up to 90% of solvent B over 14 min with a flow rate of 210 μL/min with 0.1% TFA in water as solvent A and 0.1% TFA in MeCN as solvent B. A mass range of 700 to 2000 m/z was scanned and raw data was deconvoluted and analyzed with MagTran software (Z.Q. Zhang, A.G. […]

[4] = test system: A431 cells (EGFR wild type); assay: CellTiter-Glo viability assay, A431; details: Homo sapiens, A-431, 96 h
[5] = test system: H1975 cells (EGFR-L858R/T790M); assay: CellTiter-Glo viability assay, H1975; details: Homo sapiens, NCI-H1975, 96 h
Description: (§7) A431, HCC827, H1975, A549 and H358 cells were obtained from the American Type Culture Collection (ATCC). A431 cells were cultured in DMEM high glucose media (Life Technologies, Germany), and HCC827, H1975, A549 as well as H358 cells were cultured in RPMI media (Life Technologies, Germany), both containing L-Glutamine and were supplemented with 10% FBS (GE Healthcare, Austria) and 1% PenStrep (Life Technologies, Germany) in a humidified incubator at 37 °C and 5% CO2.
(§8) Cells were seeded at cell numbers that assure linearity and optimal signal intensity (150-300 cells/well, 25 µL) and cultured for 24 hours in serum- and antibiotics-containing media in humidified chambers at 37 °C / 5% CO2. The cells were then treated with EGFR inhibitors in serial
(§9) Afterwards viability studies were carried out using CellTiter-Glo Assay (Promega, USA) that is a homogeneous method of determining the number of viable cells in culture. It is based on quantification of ATP, indicating the presence of metabolically active cells. For these studies, CellTiter-Glo reagent was prepared according to the instructions of the kit and diluted 1:1 with the complete growth medium suitable for the corresponding cell line. Thereon, reagent and assay plates were equilibrated at room temperature for 20 min. Equal volumes of the reagent were added to the volume of culture medium present in each well (25 µL). The plates were mixed for 2 minutes on an orbital shaker to induce cell lysis. The microplates were then incubated at room temperature for 20 minutes for stabilization of the luminescent signal. Following incubation the luminescence was recorded on an EnVision microplate reader (Perkin Elmer) using 500 ms integration time. The data was then analyzed using the Quattro Research Software Suite for EC50-determination. As quality control the Z’-factor was calculated from 16 positive and negative control values. Only assay results showing a Z’-factor ≥0.5 were used for further analysis. All data points were measured in duplicates for each plate and were replicated in at least two plates.

H358 cells (KRAS mutant) = assay: CellTiter-Glo viability assay, H358; assay type: cell-based; details: Homo sapiens, read-out: KRAS CTG EC50 H358;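 further: viable cell number estimated from ATP-dependent luminescence following exposure to serially diluted inhibitor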
Description: as §7, §8, §9

EGFR-wt [6] = target: T2, EGFR-wt; assay: HTRF KinEASE-TK activity-based assay, EGFR-wt; details: EGFR HTRF IC50 wt, ATP at Km (9.5 µM), 30 min preincubation; mean ± SD of three independent measurements in duplicates
A549 cells (KRAS mutant) = assay: CellTiter-Glo viability assay, A549; details: Homo sapiens, A549, 96 h, read-out: KRAS CTG EC50 A549
Description: as §7, §8, §9

[7] = Microsomal stability (phase I), mouse; assay type: in vitro ADME; details: mouse liver microsomes, up to 60 minutes, 37 °C
Description: (§1) Microsomal stability (phase I) assay.
(§2) Metabolic stability under oxidative conditions was measured in liver microsomes from different
(§3) time up to 50 minutes (HLM) or 60 minutes (MLM) at 37 °C. Based on the compound half-life t1/2,
(§4) the in vitro intrinsic clearance CLint was calculated. […]

EGFR-L858R [8] = target: T3, EGFR-L858R (Homo sapiens, UniProt P00533, L858R); assay: Kinetic characterization (Ki, kinact), EGFR-L858R
T3 sequence (P00533 25-1210 L858R): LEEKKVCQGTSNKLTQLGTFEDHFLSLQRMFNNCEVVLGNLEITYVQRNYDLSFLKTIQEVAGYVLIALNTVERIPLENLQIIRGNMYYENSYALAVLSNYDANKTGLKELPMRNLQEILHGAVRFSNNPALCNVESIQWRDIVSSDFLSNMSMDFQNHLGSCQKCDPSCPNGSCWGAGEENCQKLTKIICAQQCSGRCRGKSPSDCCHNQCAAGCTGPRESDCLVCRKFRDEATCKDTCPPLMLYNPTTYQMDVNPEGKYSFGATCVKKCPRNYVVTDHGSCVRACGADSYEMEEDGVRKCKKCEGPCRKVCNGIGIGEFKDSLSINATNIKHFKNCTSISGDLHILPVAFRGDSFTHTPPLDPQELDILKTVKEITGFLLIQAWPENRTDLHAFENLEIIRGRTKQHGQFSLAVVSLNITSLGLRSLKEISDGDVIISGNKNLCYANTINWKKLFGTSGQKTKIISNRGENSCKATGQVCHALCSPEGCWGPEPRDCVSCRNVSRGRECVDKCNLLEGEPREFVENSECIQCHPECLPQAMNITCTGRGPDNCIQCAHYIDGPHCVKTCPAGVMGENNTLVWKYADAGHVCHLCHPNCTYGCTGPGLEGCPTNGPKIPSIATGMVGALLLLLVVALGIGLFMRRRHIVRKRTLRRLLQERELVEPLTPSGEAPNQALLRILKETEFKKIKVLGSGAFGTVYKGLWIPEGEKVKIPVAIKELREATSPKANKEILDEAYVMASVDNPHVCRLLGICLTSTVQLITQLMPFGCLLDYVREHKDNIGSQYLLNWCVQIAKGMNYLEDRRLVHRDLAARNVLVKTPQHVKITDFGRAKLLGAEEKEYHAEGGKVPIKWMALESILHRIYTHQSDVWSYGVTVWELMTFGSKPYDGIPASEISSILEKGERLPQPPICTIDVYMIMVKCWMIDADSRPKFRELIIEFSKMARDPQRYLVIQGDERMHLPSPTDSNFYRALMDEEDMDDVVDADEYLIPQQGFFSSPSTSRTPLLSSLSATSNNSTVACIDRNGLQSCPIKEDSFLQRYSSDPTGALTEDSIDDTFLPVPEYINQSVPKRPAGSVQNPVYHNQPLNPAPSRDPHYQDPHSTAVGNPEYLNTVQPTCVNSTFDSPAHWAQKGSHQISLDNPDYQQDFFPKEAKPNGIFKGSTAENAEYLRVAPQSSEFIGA

EGFR-L858R [9] = target: T3, EGFR-L858R; assay: HTRF KinEASE-TK activity-based assay, EGFR-L858R
[10] = test system: HCC827 cells (EGFR-delE746_A750); assay: CellTiter-Glo viability assay, HCC827; assay type: cell-based; details: Homo sapiens, read-out: EGFR CTG EC50 HCC827;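 further: luminescence from ATP content as a measure of metabolically active cells, in RPMI with 10% FBS, compound added as serial dilutions after 24 h of preculture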
Description: as §7, §8, §9

EGFR-L858R/T790M [11] = target: T1, EGFR-L858R/T790M; assay: HTRF KinEASE-TK activity-based assay, EGFR-L858R/T790M; details: EGFR HTRF IC50 L858R/T790M, ATP at Km (4 µM), 30 min preincubation; mean ± SD of three independent measurements in duplicates
Plasma stability, human = assay type: in vitro ADME; details: 5 µM, 1 h, 37 °C
[12] = Plasma protein binding, human; assay type: in vitro ADME; details: equilibrium dialysis, 37 °C
Description: (§5) Assessment of plasma protein binding was measured by equilibrium dialysis by incubating plasma
(§6) based determination of final compound concentrations. […]

Plasma stability, mouse = assay type: in vitro ADME; details: 5 µM, 1 h, 37 °C
[13] = Microsomal stability (phase I), human; assay type: in vitro ADME; details: human liver microsomes, up to 50 minutes, 37 °C
Description: as §1, §2, §3, §4

[14] = Plasma protein binding, mouse; assay type: in vitro ADME; details: equilibrium dialysis, 37 °C
Description: as §5, §6

Caco-2 assay = assay type: in vitro ADME; details: human, Caco-2, 5 μM, pH 7.4, 2 hours; for Papp A→B at 2 h, 5 μM: apical to basolateral, read-out: Caco-2: Papp AB; for Papp B→A at 2 h, 5 μM: basolateral to apical, read-out: Caco-2: Papp BA
Description: For Caco-2 cell assay, a 10 mM DMSO stock of the compound was diluted to a final concentration of 5 μM in HBSS buffer pH 7.4 and incubated for 2 hours at 37 °C and 5% CO2 on a monolayer of Caco-2 cells (ATCC) that had been grown on a transwell membrane (Millipore, Schwalbach, Germany) for 21 days. The compound concentration was measured in the receiver as well as the donor well. Apparent permeability (Papp) from either the apical to basolateral direction or vice versa […]
is the donor drug concentration at t = 0, and dQ/dt is the amount of drug transported within the given time period of 2 hours. […]

[15] = PAMPA (parallel artificial membrane permeability assay); assay type: in vitro ADME; details: pH 7.4, 500 µM, 16 hours
Description: masses and 0.02 Da for fragment ions. FDR was adjusted to 1% on peptide spectrum match […]
as §1
Metabolic stability under oxidative conditions was measured in liver microsomes from different species by LC/MS-based measuring of depletion of compound at a concentration of 3 µM over time up to 50 minutes (HLM) or 60 minutes (MLM) at 37 °C. Based on the compound half-life t1/2, the in vitro intrinsic clearance CLint was calculated.
Plasma stability was measured by LC/MS-based determination of the percentage of remaining compounds at a concentration of 5 µM after incubation in plasma obtained from different species […]
Assessment of plasma protein binding was measured by equilibrium dialysis by incubating plasma with the compound of interest at a concentration of 5 µM for 6 h at 37 °C followed by LC/MS-based determination of final compound concentrations.
PAMPA (Parallel artificial membrane permeability assay). […]
temperature in a wet chamber, the optical density of the solution in the receiver well was measured between 250 and 500 nm in intervals of 10 nm. The percent flux was calculated from […]

[16] = read-out: EGFR CTG EC50 A431, A431, 96 hours, CellTiter-Glo
[17] = read-out: EGFR CTG EC50 H1975, H1975, 96 hours, CellTiter-Glo
[18] = NCI-H358, H358, 96 hours, CellTiter-Glo
[19] = HCC827, 96 hours, CellTiter-Glo

T2 sequence (P00533 25-1210): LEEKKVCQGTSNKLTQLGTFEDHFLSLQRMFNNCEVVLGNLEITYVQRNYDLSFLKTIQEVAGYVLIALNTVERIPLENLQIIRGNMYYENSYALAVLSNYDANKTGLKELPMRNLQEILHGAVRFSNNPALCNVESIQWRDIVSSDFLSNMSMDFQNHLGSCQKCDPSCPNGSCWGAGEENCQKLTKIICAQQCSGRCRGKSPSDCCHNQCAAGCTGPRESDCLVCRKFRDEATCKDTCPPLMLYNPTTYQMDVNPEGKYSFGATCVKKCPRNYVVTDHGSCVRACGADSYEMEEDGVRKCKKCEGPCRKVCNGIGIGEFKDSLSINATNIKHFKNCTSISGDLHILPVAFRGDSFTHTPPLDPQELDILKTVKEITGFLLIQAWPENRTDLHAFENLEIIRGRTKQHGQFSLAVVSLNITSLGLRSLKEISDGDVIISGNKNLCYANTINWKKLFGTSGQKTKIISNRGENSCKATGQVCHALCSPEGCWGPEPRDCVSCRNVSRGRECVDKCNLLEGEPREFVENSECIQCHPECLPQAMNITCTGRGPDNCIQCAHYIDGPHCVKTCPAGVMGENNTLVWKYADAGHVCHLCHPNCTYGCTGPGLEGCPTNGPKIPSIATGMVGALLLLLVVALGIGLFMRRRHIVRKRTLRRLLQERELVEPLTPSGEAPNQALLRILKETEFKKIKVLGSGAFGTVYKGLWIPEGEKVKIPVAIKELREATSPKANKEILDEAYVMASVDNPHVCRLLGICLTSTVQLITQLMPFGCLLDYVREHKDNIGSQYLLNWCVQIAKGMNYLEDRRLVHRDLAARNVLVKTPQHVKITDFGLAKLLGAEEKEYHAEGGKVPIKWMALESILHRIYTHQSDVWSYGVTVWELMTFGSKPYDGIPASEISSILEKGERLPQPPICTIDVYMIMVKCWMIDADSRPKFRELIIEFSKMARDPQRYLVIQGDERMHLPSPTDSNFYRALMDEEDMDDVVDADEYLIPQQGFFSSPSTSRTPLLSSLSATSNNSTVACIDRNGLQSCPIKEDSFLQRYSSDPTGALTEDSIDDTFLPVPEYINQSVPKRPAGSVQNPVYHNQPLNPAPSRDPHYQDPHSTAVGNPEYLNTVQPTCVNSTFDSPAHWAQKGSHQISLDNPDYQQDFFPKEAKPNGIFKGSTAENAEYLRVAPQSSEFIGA
T1 sequence (P00533 25-1210 T790M/L858R): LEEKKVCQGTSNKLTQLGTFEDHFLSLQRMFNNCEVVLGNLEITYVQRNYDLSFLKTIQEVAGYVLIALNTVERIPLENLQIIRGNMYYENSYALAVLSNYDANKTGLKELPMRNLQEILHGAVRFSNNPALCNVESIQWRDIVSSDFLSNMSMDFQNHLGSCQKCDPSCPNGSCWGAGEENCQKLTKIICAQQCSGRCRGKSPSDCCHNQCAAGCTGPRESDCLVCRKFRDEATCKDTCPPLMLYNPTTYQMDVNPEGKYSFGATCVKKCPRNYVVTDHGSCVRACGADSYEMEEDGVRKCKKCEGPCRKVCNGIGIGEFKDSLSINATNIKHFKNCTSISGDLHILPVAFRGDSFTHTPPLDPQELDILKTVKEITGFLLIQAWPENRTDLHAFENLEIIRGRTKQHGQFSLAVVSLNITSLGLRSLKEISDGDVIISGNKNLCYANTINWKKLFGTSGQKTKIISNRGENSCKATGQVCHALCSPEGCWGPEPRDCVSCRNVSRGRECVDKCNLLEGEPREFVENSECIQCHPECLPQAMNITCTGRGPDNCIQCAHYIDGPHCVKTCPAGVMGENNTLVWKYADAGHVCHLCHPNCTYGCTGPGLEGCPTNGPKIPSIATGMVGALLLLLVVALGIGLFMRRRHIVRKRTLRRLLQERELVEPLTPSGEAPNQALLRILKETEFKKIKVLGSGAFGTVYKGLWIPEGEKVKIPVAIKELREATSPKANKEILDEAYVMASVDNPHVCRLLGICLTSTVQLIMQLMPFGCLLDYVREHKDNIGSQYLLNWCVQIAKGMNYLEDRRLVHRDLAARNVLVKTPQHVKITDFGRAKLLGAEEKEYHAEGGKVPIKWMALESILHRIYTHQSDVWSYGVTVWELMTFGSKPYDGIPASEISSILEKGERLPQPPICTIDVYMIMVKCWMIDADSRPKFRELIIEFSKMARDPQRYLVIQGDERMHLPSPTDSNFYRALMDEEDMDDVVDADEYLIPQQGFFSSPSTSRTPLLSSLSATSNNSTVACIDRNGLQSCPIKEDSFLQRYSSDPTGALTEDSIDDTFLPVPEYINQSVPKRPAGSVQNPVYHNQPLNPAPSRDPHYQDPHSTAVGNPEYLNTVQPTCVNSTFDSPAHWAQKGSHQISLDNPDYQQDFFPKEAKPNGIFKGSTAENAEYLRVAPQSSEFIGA

Row | SMILES | EC50 [4, 16] [nM] | EC50 [5, 17] [nM] | EC50 (H358 cells (KRAS mutant); [18]) [nM] | EC50 (A549 cells (KRAS mutant)) [nM] | microsomal CLint at 3 µM [7] [µL/min/mg] | EC50 [10, 19] [nM] | Plasma stability (Plasma stability, human) [%remain] | fraction unbound at 6 h, 5 µM [12] | Plasma stability (Plasma stability, mouse) [%remain] | microsomal CLint at 3 µM [13] [µL/min/mg] | fraction unbound at 6 h, 5 µM [14] | Papp A→B at 2 h, 5 μM (Caco-2 assay) [×10⁻⁶ cm/s] | Papp B→A at 2 h, 5 μM (Caco-2 assay) [×10⁻⁶ cm/s] | also measured
1 | C=CC(=O)Nc1cccc(-c2c(-c3ccc(N4CCN(C)CC4)cc3)[nH]c3ncn(C(C)C)c(=O)c23)c1 [Compound 29g] | 1410 ± 917 | 65 ± 11 | 9390 ± 3380 | 5720 ± 240 | 8 | 67 ± 7 |  |  |  |  |  |  |  | Ki (EGFR-L858R/T790M [1]): 15 ± 3 nM; kinact (EGFR-L858R/T790M [1]): 0.00433 s⁻¹; kinact/KI (EGFR-L858R/T790M [1]): 300000 ± 90000 M⁻¹ s⁻¹; Ki (EGFR-wt [2]): 10 ± 1 nM; kinact (EGFR-wt [2]): 0.00167 s⁻¹; kinact/KI (EGFR-wt [2]): 160000 ± 60000 M⁻¹ s⁻¹; concentration at which phosphorylation of EGFR and downstream proteins was reduced/inhibited [3]: around 100 nM; IC50 (EGFR-wt [6]): 1 ± 0.1 nM; Ki (EGFR-L858R [8]): 10 ± 1 nM; kinact (EGFR-L858R [8]): 0.00317 s⁻¹; kinact/KI (EGFR-L858R [8]): 310000 ± 110000 M⁻¹ s⁻¹; IC50 (EGFR-L858R [9]): 0.4 nM; IC50 (EGFR-L858R/T790M [11]): 1 ± 0.3 nM
2 | C=CC(=O)Nc1cc(Nc2nccc(-c3cn(C)c4ccccc34)n2)c(OC)cc1N(C)CCN(C)C [Osimertinib, osimertinib, reference compound] |  |  |  | 1830 ± 259 | 60 |  | 78 | 0.029 | 75 | 4.1 | 0.024 | 5 | 6.8 | EC50 ([4]; read-out: EGFR CTG EC50 A431): […]; EC50 ([5]; read-out: EGFR CTG EC50 H1975): 16 ± 5 nM; EC50 (H358 cells (KRAS mutant); NCI-H358, 96 h): 2840 ± 362 nM; EC50 ([10]; HCC827, 96 h): < 14 nM; PAMPA flux [15]: 88%
3 | C=CC(=O)Nc1cccc(Oc2nc(Nc3ccc(N4CCN(C)CC4)cc3OC)ncc2Cl)c1 [WZ4002, reference compound] | 2140 ± 439 | 97 ± 37 | 4390 ± 512 | 4000 ± 545 | 66 | 20 ± 6 | 86 | 0.008 | 78 | 11 | 0.019 | 4.9 | 11.7 | 
